Experimental data from PubChem BioAssay AID248 (DTP/NCI, 2004).
Values joined by “and” are separate entries in the source; they are usually repeats but may differ in a detail not shown here. Identical values can stand only once. Toxic doses and inconclusive results are not listed. Cut-off read from the data, not from the text of the source: active = T/C of 150% or more; inactive = T/C below 125%.

Test system: L1210 leukemia ip in BDF1 mice, survival T/C
Test: NCI In Vivo Anticancer Drug Screen. Data for tumor model L1210 Leukemia (intraperitoneal) in B6D2F1 (BDF1) mice
Settings: endpoint: mean survival time, higher = longer survival
In short: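 Antitumor effect is assessed in tumor-bearing animals. Survival in the compound arm is compared with a vehicle-dosed control arm and expressed as their quotient.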

[1] = dose: 100.0 mg/kg/injection, schedule: Q04DX002 (ip), vehicle: saline
[2] = dose: 200.0 mg/kg/injection, schedule: Q04DX002 (ip), vehicle: saline
[3] = dose: 400.0 mg/kg/injection, schedule: Q04DX002 (ip), vehicle: saline
[4] = dose: 100.0 mg/kg/injection, schedule: Q01DX001 (ip), vehicle: carboxymethylcellulose (CMC)
[5] = dose: 200.0 mg/kg/injection, schedule: Q01DX001 (ip), vehicle: carboxymethylcellulose (CMC)
[6] = dose: 400.0 mg/kg/injection, schedule: Q01DX001 (ip), vehicle: carboxymethylcellulose (CMC)
[7] = dose: 100.0 mg/kg/injection, schedule: Q01DX009 (ip), vehicle: Klucel (hydroxypropylcellulose) (HPC)
[8] = dose: 100.0 mg/kg/injection, schedule: Q04DX003 (ip), vehicle: Klucel (hydroxypropylcellulose) (HPC)
[9] = dose: 200.0 mg/kg/injection, schedule: Q01DX009 (ip), vehicle: Klucel (hydroxypropylcellulose) (HPC)
[10] = dose: 200.0 mg/kg/injection, schedule: Q04DX003 (ip), vehicle: Klucel (hydroxypropylcellulose) (HPC)
[11] = dose: 400.0 mg/kg/injection, schedule: Q01DX009 (ip), vehicle: Klucel (hydroxypropylcellulose) (HPC)
[12] = dose: 50.0 mg/kg/injection, schedule: Q01DX009 (ip), vehicle: saline
[13] = dose: 100.0 mg/kg/injection, schedule: Q01DX009 (ip), vehicle: saline
[14] = dose: 100.0 mg/kg/injection, schedule: Q04DX003 (ip), vehicle: saline
[15] = dose: 200.0 mg/kg/injection, schedule: Q04DX003 (ip), vehicle: saline
[16] = dose: 400.0 mg/kg/injection, schedule: Q04DX003 (ip), vehicle: saline
[17] = dose: 200.0 mg/kg/injection, schedule: Q01DX009 (ip), vehicle: saline
[18] = dose: 400.0 mg/kg/injection, schedule: Q01DX009 (ip), vehicle: saline

Measured: T/C

O=C(O)c1cccc2c1C(=O)c1cc(Cl)ccc1-2
inactive: dose: 75.0 mg/kg/injection, schedule: Q01DX001 (ip), vehicle: carboxymethylcellulose (CMC) 96 % of control | dose: 150.0 mg/kg/injection, schedule: Q01DX001 (ip), vehicle: carboxymethylcellulose (CMC) 102 % of control

c1nc2c(o1)CCCC2
inactive: dose: 50.0 mg/kg/injection, schedule: Q04DX002 (ip), vehicle: carboxymethylcellulose (CMC) 98 % of control | dose: 50.0 mg/kg/injection, schedule: Q04DX002 (ip), vehicle: other 97 % of control | dose: 100.0 mg/kg/injection, schedule: Q04DX002 (ip), vehicle: carboxymethylcellulose (CMC) 98 % of control | dose: 100.0 mg/kg/injection, schedule: Q04DX002 (ip), vehicle: other 100 % of control | dose: 200.0 mg/kg/injection, schedule: Q04DX002 (ip), vehicle: carboxymethylcellulose (CMC) 95 % of control | dose: 200.0 mg/kg/injection, schedule: Q04DX002 (ip), vehicle: other 93 % of control

CNC1C(O)C(OC2C(N)CC(N)C(OC3OC(CN)C(O)C(O)C3O)C2O)OCC1(C)O (stereo not drawn)
inactive: [1] 116 % of control | [2] 100 % of control | [3] 95 % of control

CCC[CH2][Sn](=[S])[CH2]CCC
inactive: dose: 0.69 mg/kg/injection, schedule: Q01DX009 (ip), vehicle: other 98 % of control | dose: 0.78 mg/kg/injection, schedule: Q01DX009 (ip), vehicle: saline 93 % of control | dose: 1.04 mg/kg/injection, schedule: Q01DX009 (ip), vehicle: other 95 % of control | dose: 1.56 mg/kg/injection, schedule: Q01DX009 (ip), vehicle: other 96 % of control | dose: 1.56 mg/kg/injection, schedule: Q01DX009 (ip), vehicle: saline 112 % of control | dose: 2.34 mg/kg/injection, schedule: Q01DX009 (ip), vehicle: other 107 % of control | dose: 3.12 mg/kg/injection, schedule: Q01DX009 (ip), vehicle: saline 114 % of control | dose: 3.13 mg/kg/injection, schedule: Q01DX009 (ip), vehicle: other 105 % of control | dose: 6.25 mg/kg/injection, schedule: Q01DX009 (ip), vehicle: saline 122 % of control | dose: 12.5 mg/kg/injection, schedule: Q01DX009 (ip), vehicle: other 88 % of control | dose: 12.5 mg/kg/injection, schedule: Q04DX003 (ip), vehicle: other 98 % of control | [4] 115 % of control | [5] 102 % of control | [6] 86 % of control

Cc1ccc(NC(=O)COc2ccc(Cl)cc2)cc1Cl
inactive: [7] 94 % of control | [8] 93 % of control | [9] 86 % of control | [10] 90 % of control | [11] 93 % of control | dose: 400.0 mg/kg/injection, schedule: Q04DX003 (ip), vehicle: Klucel (hydroxypropylcellulose) (HPC) 101 % of control

O=C(Nc1cc([N+](=O)[O-])ccc1Cl)Nc1ccccc1C(F)(F)F
inactive: [7] 104 % of control | [9] 94 % of control | [11] 93 % of control

CCOC(=O)c1ccc2cc(C(=O)c3ccccc3)ccc2n1
inactive: [12] 94 % of control | [13] 100 % of control | [14] 91 % of control | [15] 91 % of control | [16] 93 % of control

CN1CC(N(C)C)CCC/C=C\C1=O (stereo not drawn)
inactive: dose: 75.0 mg/kg/injection, schedule: Q01DX001 (ip), vehicle: saline 102 % of control

Cc1cc(C)c(C(=O)N/N=C/c2ccc(N(CCCl)CCCl)cc2)c(=O)[nH]1
inactive: dose: 50.0 mg/kg/injection, schedule: Q01DX001 (ip), vehicle: carboxymethylcellulose (CMC) 97 % of control | [4] 100 % of control | [5] 103 % of control | [6] 92 % of control

O=C1NOCC1NCc1c(O)ccc2ccccc12 (stereo not drawn)
inactive: dose: 100.0 mg/kg/injection, schedule: Q04DX003 (ip), vehicle: saline with Tween-80 87 % of control | dose: 200.0 mg/kg/injection, schedule: Q04DX003 (ip), vehicle: saline with Tween-80 100 % of control | dose: 400.0 mg/kg/injection, schedule: Q04DX003 (ip), vehicle: saline with Tween-80 97 % of control

COC(=O)CC12CCCC(C)(CC(=O)N1)C2 (stereo not drawn)
inactive: [4] 93 % of control | [5] 96 % of control | [6] 98 % of control

O=S(=O)(O)c1ccc(N=Nc2ccc(O)c(Cl)c2)cc1
inactive: dose: 55.0 mg/kg/injection, schedule: Q01DX Z (ip), vehicle: methylcellulose (MC) 94 % of control | dose: 83.0 mg/kg/injection, schedule: Q01DX Z (ip), vehicle: methylcellulose (MC) 96 % of control | dose: 125.0 mg/kg/injection, schedule: Q01DX Z (ip), vehicle: methylcellulose (MC) 106 % of control

CN(CCC#N)c1ccc(/C=C(\C#N)c2ccc(Br)cc2)cc1
inactive: [7] 94 % of control | [9] 94 % of control | [11] 96 % of control

O=C(O)c1cc2ccccc2s1
inactive: dose: 50.0 mg/kg/injection, schedule: Q01DX009 (ip), vehicle: Klucel (hydroxypropylcellulose) (HPC) 98 % of control | [7] 101 % of control | [8] 102 % of control | [9] 95 % of control | [10] 94 % of control

Cc1cn(CCC(N)C(=O)O)c(=O)[nH]c1=O (stereo not drawn)
inactive: [13] 103 % of control | [1] 106 % of control | [17] 117 % of control | [2] 89 % of control | [18] 95 % of control | [3] 113 % of control

CCc1cccc(CC)c1NC(=O)NS(=O)(=O)c1ccccc1
inactive: dose: 100.0 mg/kg/injection, schedule: Q01DX009 (ip), vehicle: saline with Tween-80 91 % of control | dose: 200.0 mg/kg/injection, schedule: Q01DX009 (ip), vehicle: saline with Tween-80 88 % of control

O=C1c2ccccc2C(=O)N1c1cc([N+](=O)[O-])cc([N+](=O)[O-])c1O
inactive: dose: 100.0 mg/kg/injection, schedule: Q01DX001 (ip), vehicle: Klucel (hydroxypropylcellulose) (HPC) 98 % of control | dose: 200.0 mg/kg/injection, schedule: Q01DX001 (ip), vehicle: Klucel (hydroxypropylcellulose) (HPC) 95 % of control | dose: 400.0 mg/kg/injection, schedule: Q01DX001 (ip), vehicle: Klucel (hydroxypropylcellulose) (HPC) 88 % of control

Cc1ccc(S(=O)(=O)OC2CN3CCC2CC3)cc1 (stereo not drawn)
inactive: dose: 12.5 mg/kg/injection, schedule: Q01DX009 (ip), vehicle: saline 95 % of control | dose: 25.0 mg/kg/injection, schedule: Q01DX009 (ip), vehicle: saline 100 % of control | [12] 101 % of control and 102 % of control

OCC(c1ccccc1)C(O)Cc1ccccc1 (stereo not drawn)
inactive: [4] 97 % of control | [5] 95 % of control | [6] 101 % of control

Cc1c(C)c2c(c(C)c1O)CC(CC(=O)CO)CO2 (stereo not drawn)
inactive: dose: 100.0 mg/kg/injection, schedule: Q01DX001 (ip), vehicle: saline with Tween-80 97 % of control | dose: 200.0 mg/kg/injection, schedule: Q01DX001 (ip), vehicle: saline with Tween-80 95 % of control | dose: 400.0 mg/kg/injection, schedule: Q01DX001 (ip), vehicle: saline with Tween-80 97 % of control

CCCCCCCCCCCCCCS
inactive: dose: 200.0 mg/kg/injection, schedule: Q01DX Z (ip), vehicle: methylcellulose (MC) 116 % of control | dose: 225.0 mg/kg/injection, schedule: Q01DX Z (ip), vehicle: methylcellulose (MC) 108 % of control | dose: 450.0 mg/kg/injection, schedule: Q01DX Z (ip), vehicle: methylcellulose (MC) 104 % of control | dose: 675.0 mg/kg/injection, schedule: Q01DX Z (ip), vehicle: methylcellulose (MC) 103 % of control

CNC(=O)C(C)(C)Br
inactive: [14] 105 % of control | [15] 109 % of control | [16] 107 % of control

CC1=CC(=O)C(=O)C=C1O
inactive: dose: 50.0 mg/kg/injection, schedule: Q01DX001 (ip), vehicle: water 103 % of control | dose: 100.0 mg/kg/injection, schedule: Q01DX001 (ip), vehicle: water 113 % of control | dose: 200.0 mg/kg/injection, schedule: Q01DX001 (ip), vehicle: water 108 % of control | dose: 400.0 mg/kg/injection, schedule: Q01DX001 (ip), vehicle: water 110 % of control

CC(=O)OC1CCCC2C(=O)c3c(c(O)c4ccccc4c3O)C(=O)C12 (stereo not drawn)
inactive: [13] 98 % of control | [14] 96 % of control | [17] 98 % of control | [15] 96 % of control | [18] 101 % of control | [16] 93 % of control
